In article PMC9867837 (Cancer letters, 2022):

Columns and labels:
wtpYStat3 = molecular target: T1, wtpYStat3 (Homo sapiens, UniProt P40763); experiment: EMSA with purified wild-type pYStat3; type: biochemical; conditions: 3 μM H182, 30 min
T1 construct: made in house; host or cells: E. coli BL21(DE3) TKB1 (inducible tyrosine kinase)
Description: (§1) This construct was used to generate the mutants, Stat3C328A, Stat3C426A, Stat3C468A, and Stat3C542S, as described in detail in Supplementary Information “Methods”.
(§2) The expression of un-phosphorylated and tyrosine phosphorylated His-tagged recombinant wtStat3 and mutant Stat3 proteins in BL21 (DE3) bacterial cells is described in detail in Supplementary Information “Methods”.
Given the MS data, we conducted site-directed mutagenesis analysis for the effects of Cys mutations (Cys-to-Ala or Cys-to-Ser mutations) on the inhibitory activities or potencies of the compounds. […]
(§3) In another case, the nuclear extract was pre-incubated with the radiolabeled probe for 30 min at 30 °C prior to incubation with increasing concentration of H182 at room temperature for 30 min and subjecting to EMSA analysis. Bands corresponding to Stats DNA- binding activities were scanned and quantified using ImageJ and plotted as a percentage of control (vehicle) against the concentration of the inhibitor, from which the IC50 values were derived . […]
(§4) These studies were performed as previously reported using the v-Src -transformed NIH3T3/v-Src fibroblasts [1 -5] . […] Luciferase activity was normalized to total protein concentration of cell lysate, which was determined by Bradford assay (Bio-Rad, Hercules, CA) . […]

pYStat3C426A = molecular target: T2, pYStat3C426A (Homo sapiens, UniProt P40763, C426A); experiment: EMSA with purified mutant pYStat3C426A; type: biochemical
T2 construct: made in house; host or cells: E. coli BL21(DE3) TKB1 (inducible tyrosine kinase)
Description: as §1, §2
Given the MS data, we conducted site-directed mutagenesis analysis for the effects of Cys mutations (Cys-to-Ala or Cys-to-Ser mutations) on the inhibitory activities or potencies of the compounds. […] Purified, phosphorylated wild-type (wt)Stat3, and phosphorylated mutants, Stat3C328A, Stat3C426A, Stat3C468A, and Stat3C542S protein samples of equal amounts were pre-incubated with or without 3 μM H182 for 30 min at room temperature prior to incubation with the radiolabeled hSIE probe that binds Stat3 and subjecting to EMSA analysis. […] Focusing on the C426 and C468, we next conducted dose-response studies for effects of H182 on Stat3C426A and Stat3C468A. […] Equal proteins used in the DNA-binding assay/EMSA analysis are shown by SDS-PAGE Coomassie staining (Fig. 3B, lower). […]
as §3, §4

MDA-MB-231 cells = experiment: Wound healing (scratch) assay for migration; type: cell-based, human; conditions: one-time treatment, 22 h
Description: Studies were performed as previously reported. Details are presented in Supplementary Information, “Methods”. […]
software and Prism GraphPad software (San Diego, CA), using the one-site model. Control experiments were carried out by titration H182 into buffer, buffer into Stat3, and buffer into buffer. The three controls were used as a composite for the ITC experiment to subtract the heat of dilution and background noise from […]
1.2.11. Wound healing assay for migration
Studies were performed as previously reported [1 -3]. Briefly, cells were cultured in 6-well plates, and the monolayer of cells was scratched with a p10 pipet tip. Subsequently, fresh medium containing inhibitors or DMSO (control) was added, and then immediately, cells were imaged with a Canon Powershot A640 digital camera under a phase contrast with the Zeiss Axiovert 200 inverted microscope at 10X magnification and noted as the zero time-point. Following culture for 22 h to allow cells to migrate into the denuded area, the culture was then imaged again at the same field that was marked on the plate.
1.2.12. Annexin V binding/apoptosis and flow cytometric analysis
For apoptosis analysis, annexin V/propidium iodide (PI) staining was performed. […] The annexin V- and/or PI-positive cells were analyzed by FACScan flow cytometer (BD Biosciences) and data was analyzed using FlowJo software. […]

Plasma stability, human = type: in vitro ADME
Description: Solubility, human (HLM) and mouse liver microsomal (MLM), and plasma stability studies were performed by Eurofins Cerep Panlabs and Eurofin Discovery Services (www.eurofins.com/PharmaDiscovery), while protein binding studies were performed by Sanford Burnham Prebys Chemical Biology & Drug Discovery Core using standard protocols.

hERG = molecular target: T3, hERG (Homo sapiens, UniProt Q12809); experiment: hERG Qpatch assay; type: cell-based
T3 construct: Eurofins-CEREP (contract research organisation that ran the assay)
T3 sequence (Q12809 whole entry): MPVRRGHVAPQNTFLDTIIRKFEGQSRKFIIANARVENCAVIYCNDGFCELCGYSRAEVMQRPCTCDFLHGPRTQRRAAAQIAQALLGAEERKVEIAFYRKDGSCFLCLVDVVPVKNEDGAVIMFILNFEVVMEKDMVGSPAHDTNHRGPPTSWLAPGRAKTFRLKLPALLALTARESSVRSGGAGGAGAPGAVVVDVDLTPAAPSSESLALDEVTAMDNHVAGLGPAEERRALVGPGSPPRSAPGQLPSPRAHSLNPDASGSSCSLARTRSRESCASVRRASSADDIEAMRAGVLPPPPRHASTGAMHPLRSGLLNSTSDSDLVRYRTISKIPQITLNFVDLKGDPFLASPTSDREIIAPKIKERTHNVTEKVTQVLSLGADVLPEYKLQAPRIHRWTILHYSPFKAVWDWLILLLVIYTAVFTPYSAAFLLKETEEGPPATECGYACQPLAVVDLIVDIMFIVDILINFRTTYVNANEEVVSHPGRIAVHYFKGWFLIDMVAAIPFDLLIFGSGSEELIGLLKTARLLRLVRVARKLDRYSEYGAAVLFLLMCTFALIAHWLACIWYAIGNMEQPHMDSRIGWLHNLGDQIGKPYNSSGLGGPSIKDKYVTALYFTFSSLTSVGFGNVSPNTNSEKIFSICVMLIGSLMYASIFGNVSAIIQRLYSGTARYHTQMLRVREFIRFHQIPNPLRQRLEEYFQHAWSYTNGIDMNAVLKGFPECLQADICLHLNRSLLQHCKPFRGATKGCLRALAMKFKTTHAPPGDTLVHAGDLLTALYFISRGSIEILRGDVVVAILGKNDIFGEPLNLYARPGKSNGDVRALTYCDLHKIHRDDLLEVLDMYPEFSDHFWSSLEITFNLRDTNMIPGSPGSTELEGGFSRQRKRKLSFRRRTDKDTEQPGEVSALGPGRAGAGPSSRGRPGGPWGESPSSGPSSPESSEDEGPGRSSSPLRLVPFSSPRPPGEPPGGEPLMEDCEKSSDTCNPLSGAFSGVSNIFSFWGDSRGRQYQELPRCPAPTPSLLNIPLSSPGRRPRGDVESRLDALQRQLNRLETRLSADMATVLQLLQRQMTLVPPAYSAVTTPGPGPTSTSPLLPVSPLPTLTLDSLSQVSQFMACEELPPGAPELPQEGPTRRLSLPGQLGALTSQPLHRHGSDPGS

T2 sequence (P40763 127-711 C426A): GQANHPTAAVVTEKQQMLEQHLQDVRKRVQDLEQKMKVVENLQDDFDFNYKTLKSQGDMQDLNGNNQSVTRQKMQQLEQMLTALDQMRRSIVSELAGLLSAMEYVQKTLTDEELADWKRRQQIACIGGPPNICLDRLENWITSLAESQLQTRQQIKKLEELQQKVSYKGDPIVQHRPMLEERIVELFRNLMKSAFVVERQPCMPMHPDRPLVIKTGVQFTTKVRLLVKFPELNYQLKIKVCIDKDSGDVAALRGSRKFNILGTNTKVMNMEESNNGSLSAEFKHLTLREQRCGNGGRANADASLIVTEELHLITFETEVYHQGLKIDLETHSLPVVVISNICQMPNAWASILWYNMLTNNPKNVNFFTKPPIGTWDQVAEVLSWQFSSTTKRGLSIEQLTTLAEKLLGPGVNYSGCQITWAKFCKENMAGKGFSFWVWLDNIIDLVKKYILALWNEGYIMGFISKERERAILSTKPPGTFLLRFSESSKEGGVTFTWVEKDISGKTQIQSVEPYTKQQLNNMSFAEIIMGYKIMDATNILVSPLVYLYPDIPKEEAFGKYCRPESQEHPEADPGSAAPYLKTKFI
T1 sequence (P40763 127-711): as the sequence (P40763 127-711 C426A) above, with A300C counted along it

O=C([C@H]1CCN1S(=O)(=O)c1c(F)c(F)c(F)c(F)c1F)N(Cc1ccc(C2CCCCC2)cn1)c1ccc2c(=O)[nH]ncc2c1 [Compound H182]
Effect on DNA-binding activity of wtpYStat3 (wtpYStat3): strong inhibition
Effect on DNA-binding activity of pYStat3C426A (pYStat3C426A; 3 μM H182, 30 min): unaffected
Effect on pYStat3C426A activity (pYStat3C426A; 10 μM H182): near complete inhibition
IC50 (pYStat3C426A; EMSA, 0–50 μM H182, 30 min): 6 µM
Effect on cell migration into the denuded area (MDA-MB-231 cells): inhibited the cell migration
remaining at 1 h (Plasma stability, human; 1 h): 53%
remaining at 2 h (Plasma stability, human; 2 h): 10%
IC50 (hERG): > 10 µM
